In ChEMBL document CHEMBL5143732 (J Med Chem, 2022):
Values after ≈ are worked out from the molar mass of the structure shown.

What was measured:
Format in all cases: functional
Cryptococcus neoformans = experiment: Antifungal activity against Cryptococcus neoformans ATCC 32609 assessed as inhibition of fungal growth measured after 48 hrs by CLSI based agar dilution method
Candida albicans = experiment: Antifungal activity against Candida albicans assessed as inhibition of fungal growth measured after 48 hrs by CLSI based agar dilution method
Pichia kudriavzevii [1] = experiment: Antifungal activity against Candida krusei assessed as inhibition of fungal growth measured after 48 hrs by CLSI based agar dilution method
Candida parapsilosis = experiment: Antifungal activity against Candida parapsilosis assessed as inhibition of fungal growth measured after 48 hrs by CLSI based agar dilution method; conditions: Lodderomyces parapsilosis
Pichia kudriavzevii [2] = experiment: Antifungal activity against Candida krusei ATCC 6258 assessed as inhibition of fungal growth measured after 48 hrs by CLSI based agar dilution method
Candida tropicalis = experiment: Antifungal activity against Candida tropicalis assessed as inhibition of fungal growth measured after 48 hrs by CLSI based agar dilution method

| SMILES | MIC (Cryptococcus neoformans) | MIC (Candida albicans) | MIC (Pichia kudriavzevii [1]) | MIC (Candida parapsilosis) | MIC (Pichia kudriavzevii [2]) | MIC (Candida tropicalis) |
| --- | --- | --- | --- | --- | --- | --- |
| CC(C)C(=O)NNC(=O)[C@H]1[C@@H]2C[C@@H](O[C@@H]3O[C@H](C)[C@@H](O)[C@H](N)[C@@H]3O)/C=C/C=C/C=C/C=C/C=C/C=C/C=C/[C@H](C)[C@@H](O)[C@@H](C)[C@H](C)OC(=O)C[C@H](O)C[C@H](O)CC[C@@H](O)[C@H](O)C[C@H](O)C[C@](O)(C[C@@H]1O)O2 | 0.06 µg/mL (≈ 0.0595 µM) | 0.03 µg/mL (≈ 0.0298 µM) | 0.5 µg/mL (≈ 0.496 µM) | 1 µg/mL (≈ 0.992 µM) | 1 µg/mL (≈ 0.992 µM) | 0.5 µg/mL (≈ 0.496 µM) |
| C[C@@H]1[C@H](O)[C@@H](C)/C=C/C=C/C=C/C=C/C=C/C=C/C=C/[C@H](O[C@@H]2O[C@H](C)[C@@H](O)[C@H](N)[C@@H]2O)C[C@@H]2O[C@](O)(C[C@@H](O)C[C@@H](O)[C@H](O)CC[C@@H](O)C[C@@H](O)CC(=O)O[C@H]1C)C[C@H](O)[C@H]2C(=O)NNC(=O)c1ccc(Cl)cc1 | 2 µg/mL (≈ 1.86 µM) | 4 µg/mL (≈ 3.72 µM) | 8 µg/mL (≈ 7.43 µM) | 16 µg/mL (≈ 14.9 µM) | 16 µg/mL (≈ 14.9 µM) | 8 µg/mL (≈ 7.43 µM) |
| CNCC(=O)N[C@@H]1[C@H](O)[C@H](O[C@H]2/C=C/C=C/C=C/C=C/C=C/C=C/C=C/[C@H](C)[C@@H](O)[C@@H](C)[C@H](C)OC(=O)C[C@H](O)C[C@H](O)CC[C@@H](O)[C@H](O)C[C@H](O)C[C@]3(O)C[C@H](O)[C@@H](C(=O)NCCN(C)C)[C@H](C2)O3)O[C@H](C)[C@H]1O | 0.5 µg/mL (≈ 0.469 µM) | 2 µg/mL (≈ 1.88 µM) | 2 µg/mL (≈ 1.88 µM) | 2 µg/mL (≈ 1.88 µM) | 16 µg/mL (≈ 15 µM) | 4 µg/mL (≈ 3.75 µM) |
| CNCC(=O)N[C@@H]1[C@H](O)[C@H](O[C@H]2/C=C/C=C/C=C/C=C/C=C/C=C/C=C/[C@H](C)[C@@H](O)[C@@H](C)[C@H](C)OC(=O)C[C@H](O)C[C@H](O)CC[C@@H](O)[C@H](O)C[C@H](O)C[C@]3(O)C[C@H](O)[C@@H](C(=O)NCCCN(C)C)[C@H](C2)O3)O[C@H](C)[C@H]1O | 1 µg/mL (≈ 0.926 µM) | 2 µg/mL (≈ 1.85 µM) | 2 µg/mL (≈ 1.85 µM) | 4 µg/mL (≈ 3.71 µM) | 16 µg/mL (≈ 14.8 µM) | 2 µg/mL (≈ 1.85 µM) |
| C[C@@H]1[C@H](O)[C@@H](C)/C=C/C=C/C=C/C=C/C=C/C=C/C=C/[C@H](O[C@@H]2O[C@H](C)[C@@H](O)[C@H](NC(=O)CN)[C@@H]2O)C[C@@H]2O[C@](O)(C[C@@H](O)C[C@@H](O)[C@H](O)CC[C@@H](O)C[C@@H](O)CC(=O)O[C@H]1C)C[C@H](O)[C@H]2C(=O)NCCCN(C)C | 2 µg/mL (≈ 1.88 µM) | 1 µg/mL (≈ 0.939 µM) | 8 µg/mL (≈ 7.51 µM) | 8 µg/mL (≈ 7.51 µM) | 32 µg/mL (≈ 30 µM) | 16 µg/mL (≈ 15 µM) |
| CNCC(=O)N[C@@H]1[C@H](O)[C@H](O[C@H]2/C=C/C=C/C=C/C=C/C=C/C=C/C=C/[C@H](C)[C@@H](O)[C@@H](C)[C@H](C)OC(=O)C[C@H](O)C[C@H](O)CC[C@@H](O)[C@H](O)C[C@H](O)C[C@]3(O)C[C@H](O)[C@@H](C(=O)N4CCN(CCS(C)(=O)=O)CC4)[C@H](C2)O3)O[C@H](C)[C@H]1O | 2 µg/mL (≈ 1.71 µM) | 2 µg/mL (≈ 1.71 µM) | 4 µg/mL (≈ 3.42 µM) | 2 µg/mL (≈ 1.71 µM) | 16 µg/mL (≈ 13.7 µM) | 4 µg/mL (≈ 3.42 µM) |
| CNCC(=O)N[C@@H]1[C@H](O)[C@H](O[C@H]2/C=C/C=C/C=C/C=C/C=C/C=C/C=C/[C@H](C)[C@@H](O)[C@@H](C)[C@H](C)OC(=O)C[C@H](O)C[C@H](O)CC[C@@H](O)[C@H](O)C[C@H](O)C[C@]3(O)C[C@H](O)[C@@H](C(=O)N4CCN(C(=O)c5ccncn5)CC4)[C@H](C2)O3)O[C@H](C)[C@H]1O | 1 µg/mL (≈ 0.855 µM) | 1 µg/mL (≈ 0.855 µM) | 1 µg/mL (≈ 0.855 µM) | 16 µg/mL (≈ 13.7 µM) | 16 µg/mL (≈ 13.7 µM) | 4 µg/mL (≈ 3.42 µM) |
| C[C@@H]1[C@H](O)[C@@H](C)/C=C/C=C/C=C/C=C/C=C/C=C/C=C/[C@H](O[C@@H]2O[C@H](C)[C@@H](O)[C@H](NC(=O)COCCN)[C@@H]2O)C[C@@H]2O[C@](O)(C[C@@H](O)C[C@@H](O)[C@H](O)CC[C@@H](O)C[C@@H](O)CC(=O)O[C@H]1C)C[C@H](O)[C@H]2C(=O)N1CCN(CCO)CC1 | 0.5 µg/mL (≈ 0.44 µM) | 0.5 µg/mL (≈ 0.44 µM) | 2 µg/mL (≈ 1.76 µM) | 2 µg/mL (≈ 1.76 µM) | 16 µg/mL (≈ 14.1 µM) | 0.25 µg/mL (≈ 0.22 µM) |
| CCC(=O)NNC(=O)[C@H]1[C@@H]2C[C@@H](O[C@@H]3O[C@H](C)[C@@H](O)[C@H](N)[C@@H]3O)/C=C/C=C/C=C/C=C/C=C/C=C/C=C/[C@H](C)[C@@H](O)[C@@H](C)[C@H](C)OC(=O)C[C@H](O)C[C@H](O)CC[C@@H](O)[C@H](O)C[C@H](O)C[C@](O)(C[C@@H]1O)O2 | 0.03 µg/mL (≈ 0.0302 µM) | 0.25 µg/mL (≈ 0.251 µM) | 0.5 µg/mL (≈ 0.503 µM) | 1 µg/mL (≈ 1.01 µM) | 0.5 µg/mL (≈ 0.503 µM) | 0.5 µg/mL (≈ 0.503 µM) |
| CNCC(=O)N[C@@H]1[C@H](O)[C@H](O[C@H]2/C=C/C=C/C=C/C=C/C=C/C=C/C=C/[C@H](C)[C@@H](O)[C@@H](C)[C@H](C)OC(=O)C[C@H](O)C[C@H](O)CC[C@@H](O)[C@H](O)C[C@H](O)C[C@]3(O)C[C@H](O)[C@@H](C(=O)N4CCN(C(C)=O)CC4)[C@H](C2)O3)O[C@H](C)[C@H]1O | 2 µg/mL (≈ 1.81 µM) | 2 µg/mL (≈ 1.81 µM) | 4 µg/mL (≈ 3.62 µM) | 4 µg/mL (≈ 3.62 µM) | 8 µg/mL (≈ 7.24 µM) | 4 µg/mL (≈ 3.62 µM) |
